Measured values from paper PMC10983004 (Journal of Medicinal Chemistry, 2024).

Legend:
TET2CD = TET2CD (Homo sapiens, UniProt Q6N021)
KDM2A = target: T1, KDM2A (Homo sapiens, UniProt Q9Y2K7); conditions: read-out: Ki (calculated) KDM2A; Cheng-Prussoff from reported IC50; ref 75 (SI ref 4)
T1 sequence (Q9Y2K7 1-1162): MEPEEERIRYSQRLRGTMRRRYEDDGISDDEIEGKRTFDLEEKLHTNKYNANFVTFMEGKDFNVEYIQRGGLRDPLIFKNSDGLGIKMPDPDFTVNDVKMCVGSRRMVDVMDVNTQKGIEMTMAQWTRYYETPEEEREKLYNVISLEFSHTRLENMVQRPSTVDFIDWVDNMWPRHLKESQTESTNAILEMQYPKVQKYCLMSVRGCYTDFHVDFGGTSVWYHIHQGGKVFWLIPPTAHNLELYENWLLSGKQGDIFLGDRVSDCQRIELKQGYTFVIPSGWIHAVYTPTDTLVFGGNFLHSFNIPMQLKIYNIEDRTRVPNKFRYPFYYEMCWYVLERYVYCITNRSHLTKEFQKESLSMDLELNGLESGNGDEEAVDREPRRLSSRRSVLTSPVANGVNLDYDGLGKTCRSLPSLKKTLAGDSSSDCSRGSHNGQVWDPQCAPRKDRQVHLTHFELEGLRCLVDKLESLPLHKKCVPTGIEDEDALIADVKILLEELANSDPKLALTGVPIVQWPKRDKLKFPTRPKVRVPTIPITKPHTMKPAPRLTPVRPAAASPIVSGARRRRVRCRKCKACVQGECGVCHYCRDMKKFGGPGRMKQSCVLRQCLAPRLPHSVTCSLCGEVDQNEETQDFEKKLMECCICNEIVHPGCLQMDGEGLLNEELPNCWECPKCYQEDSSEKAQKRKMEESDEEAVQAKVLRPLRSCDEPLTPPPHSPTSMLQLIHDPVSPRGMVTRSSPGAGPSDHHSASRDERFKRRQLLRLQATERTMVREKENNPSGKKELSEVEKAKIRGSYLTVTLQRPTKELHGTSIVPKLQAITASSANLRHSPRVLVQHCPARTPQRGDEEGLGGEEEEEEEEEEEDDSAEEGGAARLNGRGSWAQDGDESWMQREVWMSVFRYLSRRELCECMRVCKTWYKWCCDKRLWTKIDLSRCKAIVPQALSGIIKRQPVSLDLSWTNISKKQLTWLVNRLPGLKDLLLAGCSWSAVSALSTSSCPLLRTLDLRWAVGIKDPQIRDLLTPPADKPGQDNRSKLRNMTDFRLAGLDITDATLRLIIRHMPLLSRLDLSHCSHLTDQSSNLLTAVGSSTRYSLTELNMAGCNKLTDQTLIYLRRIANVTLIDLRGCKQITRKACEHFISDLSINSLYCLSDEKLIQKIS

KDM6A [1] = target: T2, KDM6A (Homo sapiens, UniProt O15550); conditions: read-out: Ki (calculated) KDM6A; Cheng-Prussoff from reported IC50; ref SI 8
T2 sequence (O15550 whole entry): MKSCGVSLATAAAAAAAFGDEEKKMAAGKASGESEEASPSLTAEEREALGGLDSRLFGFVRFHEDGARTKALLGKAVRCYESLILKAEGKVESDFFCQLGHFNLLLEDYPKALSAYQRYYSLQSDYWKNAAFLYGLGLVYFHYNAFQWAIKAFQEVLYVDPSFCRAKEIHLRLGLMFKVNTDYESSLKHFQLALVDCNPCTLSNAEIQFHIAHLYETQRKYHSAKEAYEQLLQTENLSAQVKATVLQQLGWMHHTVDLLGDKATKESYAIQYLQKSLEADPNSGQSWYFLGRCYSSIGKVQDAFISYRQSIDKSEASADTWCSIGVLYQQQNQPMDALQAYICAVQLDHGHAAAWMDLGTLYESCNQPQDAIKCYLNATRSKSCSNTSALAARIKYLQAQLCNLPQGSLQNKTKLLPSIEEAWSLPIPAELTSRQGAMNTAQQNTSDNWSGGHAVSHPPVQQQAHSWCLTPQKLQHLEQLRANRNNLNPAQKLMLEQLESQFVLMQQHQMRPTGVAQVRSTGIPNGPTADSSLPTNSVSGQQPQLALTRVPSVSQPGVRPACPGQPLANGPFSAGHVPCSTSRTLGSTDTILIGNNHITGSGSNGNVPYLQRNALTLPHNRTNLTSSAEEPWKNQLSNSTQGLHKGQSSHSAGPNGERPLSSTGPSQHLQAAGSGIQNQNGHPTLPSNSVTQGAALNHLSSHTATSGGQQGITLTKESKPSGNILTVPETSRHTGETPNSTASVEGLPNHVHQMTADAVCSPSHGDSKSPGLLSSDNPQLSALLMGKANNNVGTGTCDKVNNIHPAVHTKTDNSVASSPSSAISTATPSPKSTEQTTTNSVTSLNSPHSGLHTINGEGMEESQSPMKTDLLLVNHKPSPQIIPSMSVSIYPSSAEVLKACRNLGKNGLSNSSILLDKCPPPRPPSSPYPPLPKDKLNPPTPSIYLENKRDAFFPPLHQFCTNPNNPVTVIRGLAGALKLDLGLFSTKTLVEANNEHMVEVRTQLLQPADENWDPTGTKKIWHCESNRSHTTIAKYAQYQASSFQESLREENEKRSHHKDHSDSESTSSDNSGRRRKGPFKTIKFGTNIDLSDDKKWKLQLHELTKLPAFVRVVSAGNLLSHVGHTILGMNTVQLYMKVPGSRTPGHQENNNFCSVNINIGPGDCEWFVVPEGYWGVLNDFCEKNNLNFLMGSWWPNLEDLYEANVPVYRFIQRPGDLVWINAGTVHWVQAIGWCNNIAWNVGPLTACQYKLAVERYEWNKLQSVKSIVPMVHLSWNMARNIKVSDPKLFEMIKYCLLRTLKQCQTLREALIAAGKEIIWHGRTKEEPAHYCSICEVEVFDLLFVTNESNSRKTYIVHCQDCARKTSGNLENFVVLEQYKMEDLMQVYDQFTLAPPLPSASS

KDM6B [2] = target: T3, KDM6B (Homo sapiens, UniProt O15054); conditions: read-out: Ki (calculated) KDM6B; Cheng-Prussoff from reported IC50; ref SI 8
T3 sequence (O15054 whole entry): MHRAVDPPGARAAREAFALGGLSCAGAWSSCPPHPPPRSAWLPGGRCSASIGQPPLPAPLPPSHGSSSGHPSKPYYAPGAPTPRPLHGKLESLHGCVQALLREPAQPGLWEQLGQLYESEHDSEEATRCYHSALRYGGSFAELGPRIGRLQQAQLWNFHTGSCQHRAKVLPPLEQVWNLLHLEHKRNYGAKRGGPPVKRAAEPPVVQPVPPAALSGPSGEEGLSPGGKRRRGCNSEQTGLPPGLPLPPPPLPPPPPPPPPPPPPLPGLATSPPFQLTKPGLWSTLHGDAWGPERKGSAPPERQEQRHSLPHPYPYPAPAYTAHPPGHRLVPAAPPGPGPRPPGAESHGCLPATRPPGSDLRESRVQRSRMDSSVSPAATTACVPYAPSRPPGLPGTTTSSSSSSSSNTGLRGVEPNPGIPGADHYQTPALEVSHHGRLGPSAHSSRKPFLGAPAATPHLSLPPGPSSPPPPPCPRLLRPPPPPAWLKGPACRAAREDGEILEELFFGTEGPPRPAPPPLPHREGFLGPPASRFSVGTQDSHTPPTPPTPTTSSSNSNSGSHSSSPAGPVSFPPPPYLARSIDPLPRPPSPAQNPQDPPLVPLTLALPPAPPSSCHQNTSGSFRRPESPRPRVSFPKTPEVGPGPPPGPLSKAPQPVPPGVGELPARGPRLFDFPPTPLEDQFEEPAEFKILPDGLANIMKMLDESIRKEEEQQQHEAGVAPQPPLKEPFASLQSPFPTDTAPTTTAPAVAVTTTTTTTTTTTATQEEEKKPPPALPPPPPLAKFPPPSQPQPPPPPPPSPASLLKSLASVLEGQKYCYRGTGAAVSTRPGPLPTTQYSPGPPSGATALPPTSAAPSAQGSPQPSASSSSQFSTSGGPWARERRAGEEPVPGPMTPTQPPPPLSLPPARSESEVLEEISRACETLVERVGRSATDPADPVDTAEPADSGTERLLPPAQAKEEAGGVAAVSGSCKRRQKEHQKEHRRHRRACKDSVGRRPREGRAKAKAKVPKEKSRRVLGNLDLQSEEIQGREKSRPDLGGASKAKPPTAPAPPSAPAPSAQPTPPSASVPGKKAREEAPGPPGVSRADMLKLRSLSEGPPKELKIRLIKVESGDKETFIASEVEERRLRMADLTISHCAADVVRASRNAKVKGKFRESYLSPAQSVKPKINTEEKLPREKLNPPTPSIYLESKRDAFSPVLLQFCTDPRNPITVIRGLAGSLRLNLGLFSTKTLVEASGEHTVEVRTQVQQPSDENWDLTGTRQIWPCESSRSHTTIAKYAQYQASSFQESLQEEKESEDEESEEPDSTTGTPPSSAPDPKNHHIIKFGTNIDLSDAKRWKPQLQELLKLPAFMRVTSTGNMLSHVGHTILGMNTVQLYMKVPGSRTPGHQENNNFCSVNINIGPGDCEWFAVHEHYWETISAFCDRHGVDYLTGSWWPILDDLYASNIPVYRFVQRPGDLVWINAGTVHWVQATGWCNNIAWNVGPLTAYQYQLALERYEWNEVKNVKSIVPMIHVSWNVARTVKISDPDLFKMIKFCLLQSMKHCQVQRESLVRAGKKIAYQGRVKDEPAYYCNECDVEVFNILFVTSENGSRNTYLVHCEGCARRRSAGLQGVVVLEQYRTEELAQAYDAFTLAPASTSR

PHD1 = conditions: ref SI 6 (main 76); cited from earlier work
PHD3 = conditions: ref SI 6 (main 76); cited from earlier work
PHD1, PHD2, PHD3 = conditions: RCC4/VHLHA, Hep3B, MCF7; western blot; ref SI 4; cited from earlier work
ABH3 = conditions: U87-MG, U373-MG, HT-1080; western blot; ref SI 11; cited from earlier work
FTO = conditions: NOMO-1, U937, MA9.3ITD; dot blot and LC-MS/MS; ref SI 12; cited from earlier work
BBOX1 = conditions: read-out: IC50 BBOX1; [2OG] 40 µM, enzyme 25 nM; ref SI 4 (main 75); cited from earlier work
KDM4B [3] = target: T4, KDM4B (Homo sapiens, UniProt O94953); conditions: read-out: IC50 KDM4B; [2OG] 20 µM; ref SI 8 (main 64); cited from earlier work
T4 sequence (O94953 1-1096): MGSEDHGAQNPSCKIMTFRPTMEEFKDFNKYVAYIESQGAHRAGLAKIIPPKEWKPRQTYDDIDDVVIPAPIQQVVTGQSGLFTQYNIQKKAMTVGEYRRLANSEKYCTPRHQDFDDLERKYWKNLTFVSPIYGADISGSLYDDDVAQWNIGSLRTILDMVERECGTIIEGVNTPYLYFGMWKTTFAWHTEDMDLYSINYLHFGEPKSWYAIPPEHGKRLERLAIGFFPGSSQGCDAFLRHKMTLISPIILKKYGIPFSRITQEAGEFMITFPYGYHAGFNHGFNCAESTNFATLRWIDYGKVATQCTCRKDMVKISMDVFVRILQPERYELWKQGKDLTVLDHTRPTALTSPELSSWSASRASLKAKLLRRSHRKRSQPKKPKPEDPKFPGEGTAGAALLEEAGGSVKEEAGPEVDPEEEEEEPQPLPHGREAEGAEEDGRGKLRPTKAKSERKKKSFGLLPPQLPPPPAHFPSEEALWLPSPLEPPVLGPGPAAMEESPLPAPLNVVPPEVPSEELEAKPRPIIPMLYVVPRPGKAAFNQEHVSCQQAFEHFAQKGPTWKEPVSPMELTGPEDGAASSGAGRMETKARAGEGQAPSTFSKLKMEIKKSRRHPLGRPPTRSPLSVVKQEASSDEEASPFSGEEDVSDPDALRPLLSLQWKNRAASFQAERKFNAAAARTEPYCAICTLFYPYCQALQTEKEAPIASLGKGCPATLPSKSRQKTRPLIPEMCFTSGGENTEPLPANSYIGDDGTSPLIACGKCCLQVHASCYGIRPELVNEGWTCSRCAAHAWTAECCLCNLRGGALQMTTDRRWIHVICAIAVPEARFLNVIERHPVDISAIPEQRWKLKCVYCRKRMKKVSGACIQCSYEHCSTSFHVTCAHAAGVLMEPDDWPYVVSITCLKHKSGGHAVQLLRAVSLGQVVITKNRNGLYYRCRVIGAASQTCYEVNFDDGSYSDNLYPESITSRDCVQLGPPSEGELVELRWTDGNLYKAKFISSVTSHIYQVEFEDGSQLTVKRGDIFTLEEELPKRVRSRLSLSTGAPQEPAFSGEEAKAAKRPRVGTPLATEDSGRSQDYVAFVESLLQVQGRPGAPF

KDM5B [4] = conditions: read-out: IC50 KDM5B (14CO2 radioactive); [2OG] 40 µM; ref SI 8 (main 64); cited from earlier work
KDM6A [5] = target: T2, KDM6A; conditions: read-out: IC50 KDM6A; [2OG] […]; ref SI 8 (main 64); cited from earlier work
KDM6B [6] = target: T3, KDM6B; conditions: read-out: IC50 KDM6B; [2OG] 200 µM; ref SI 8 (main 64); cited from earlier work
KDM5B [7] = conditions: cited from earlier work
KDM4B [8] = target: T4, KDM4B; assay: biochemical
FIH = conditions: read-out: IC50 FIH; [2OG] 100 µM, enzyme 1,000 nM; ref SI 4 (main 75); cited from earlier work
TET1CD [9] = target: T5, TET1CD (Homo sapiens, UniProt Q8NFU7)
T5 sequence (Q8NFU7 1418-2136): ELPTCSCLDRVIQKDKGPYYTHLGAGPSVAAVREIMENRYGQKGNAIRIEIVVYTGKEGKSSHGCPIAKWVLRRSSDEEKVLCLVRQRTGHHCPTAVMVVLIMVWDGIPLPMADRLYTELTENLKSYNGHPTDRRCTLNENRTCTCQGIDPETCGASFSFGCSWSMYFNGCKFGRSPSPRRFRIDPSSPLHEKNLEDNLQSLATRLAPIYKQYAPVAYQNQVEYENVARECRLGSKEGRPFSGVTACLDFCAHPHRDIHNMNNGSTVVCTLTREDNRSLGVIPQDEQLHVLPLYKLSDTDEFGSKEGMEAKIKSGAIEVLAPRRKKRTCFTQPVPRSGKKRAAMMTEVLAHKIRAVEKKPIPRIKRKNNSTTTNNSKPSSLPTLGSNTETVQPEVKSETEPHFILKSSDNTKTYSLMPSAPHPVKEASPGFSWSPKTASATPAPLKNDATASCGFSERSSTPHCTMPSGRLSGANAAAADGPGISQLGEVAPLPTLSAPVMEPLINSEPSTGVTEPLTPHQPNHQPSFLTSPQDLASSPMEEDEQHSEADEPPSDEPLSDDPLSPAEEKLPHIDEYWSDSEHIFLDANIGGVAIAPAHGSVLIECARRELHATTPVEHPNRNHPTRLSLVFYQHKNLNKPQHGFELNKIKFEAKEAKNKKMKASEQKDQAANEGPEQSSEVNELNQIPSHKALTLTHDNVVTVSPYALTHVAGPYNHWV

in vitro = conditions: human, Cellular pCC50 TET1CD, nuclear count by DAPI staining, 24 h; named compound dosed
TET1CD [10] = target: T5, TET1CD; assay: cell-based; conditions: U2OS, read-out: % inhibition of TET1 in cells at […]

Question: With O=C(O)CC[C@@H](O)C(=O)O [R-2HG, (2R)-hydroxyglutarate] as the molecule, how does the “α-value TET2CD” value (TET2CD) read?
Answer: 11 ± 13

Question: What about the Ki (KDM2A) of the same molecule?
Answer: 74 µM

Question: And the Ki (KDM6A [1])?
Answer: 43 µM

Question: What about the Ki (KDM6B [2]) of the same molecule?
Answer: 89 µM

Question: And the Ki (PHD1)?
Answer: 1150 µM

Question: And the Ki (PHD3)?
Answer: 90 µM

Question: And the “cellular inhibition PHD1–3 (in words)” value (PHD1, PHD2, PHD3)?
Answer: Putative inhibition of PHD

Question: What about the “cellular inhibition ABH3 (in words)” value (ABH3) of the same molecule?
Answer: Inhibition

Question: And the “cellular inhibition FTO (in words)” value (FTO)?
Answer: Inhibition

Question: And the IC50 (BBOX1)?
Answer: 13200 µM

Question: What about the IC50 (KDM4B [3]) of the same molecule?
Answer: 150 µM

Question: And the IC50 (KDM6A [5])?
Answer: 180 µM

Question: And the IC50 (KDM6B [6])?
Answer: 350 µM

Question: And the “cellular inhibition KDM5B at 2.0 mM (in words)” value (KDM5B [7])?
Answer: No inhibition

Question: And the Ki (KDM4B [8])?
Answer: 53 µM

Question: With O=C(O)CC[C@H](O)C(=O)O [S-2HG, S-2-hydroxyglutarate] as the molecule, how does the Ki (KDM6A [1]) read?
Answer: 43 µM

Question: And the Ki (KDM6B [2])?
Answer: 191 µM

Question: And the IC50 (FIH)?
Answer: 189 µM

Question: What about the IC50 (BBOX1) of the same molecule?
Answer: 142 µM

Question: What about the IC50 (KDM4B [3]) of the same molecule?
Answer: 450 µM

Question: What about the IC50 (KDM6A [5]) of the same molecule?
Answer: 180 µM

Question: And the IC50 (KDM6B [6])?
Answer: 750 µM

Question: And the “cellular inhibition KDM5B at 1.0 mM (in words)” value (KDM5B [7]; U2OS, 1.0 mM, immunofluorescence, ref SI 10)?
Answer: No inhibition

Question: What about the Ki (KDM4B [8]) of the same molecule?
Answer: 158 µM

Question: Which EC50 (TET1CD [9]) does the source give for CCCCCCCCOC(=O)[C@H](O)CCC(=O)O [octyl-(R)-2HG, R-Octyl-2-hydroxyglutarate] here?
Answer: ~1500 µM

Question: What about the “Cellular pEC50 TET1CD” value (TET1CD [9]; U2OS, 24 h with Dox induction, 5hmC IF, named compound dosed, replicates in parentheses) of the same molecule?
Answer: 2.83 ± 0.09 (3)

Question: And the CC50 at 24 h (in vitro)?
Answer: > 2000 µM

Question: And the inhibition at 1500 µM (TET1CD [10])?
Answer: ~50%
